# “And” between values parts separate entries of the source, which are not always exact repeats. Identical values can stand only once. Like-named read-outs stand apart in the source and are kept apart here.
# Key:
# H3K9me2 in CD34+ cells = experiment: Western blotting of H3K9me2 in CD34+ cells; type: cell-based, human
# Protocol: HUDEP-2 cells and HiDEP-1 cells were grown in Stemline II Hematopoietic Stem Cell Expansion Medium (Sigma) supplemented with 50 ng/mL recombinant stem cell factor (SCF; R&D systems), 3 IU/mL recombinant erythropoietin (EPO; Kyowa Kirin), 1 μM dexamethasone (Dex; Sigma), and 1 μg/mL doxycycline (Sigma). A total of 1 × 10^5 human CD34^+ progenitor cells derived from bone marrow or peripheral blood (Lonza) were cultured on 35-mm dishes (BD Falcon) in StemSpan SFEMII medium with 50 ng/mL SCF, 5 IU/mL EPO, and 10 ng /mL interleukin 3 (IL-3; R&D systems). The medium was changed on day 4 to SCF, EPO, and 1 μM Dex, and the cells were transferred to 60-mm dishes (BD Falcon). Seven days after the onset of differentiation, cells were counted and 1 × 10^6 cells were re-plated on 100-mm dishes (BD Falcon) with SCF, EPO, and Dex. The rat myoblast cell line H9c2, HEK293T, and PLAT-E cells were maintained in Dulbecco’s modified Eagle’s medium (Thermo Fisher Scientific) supplemented with 10% heat-inactivated fetal bovine serum (FBS) and penicillin/streptomycin. All cells were cultured at 37 °C under 5% CO2.
# Preparation of cell lysates and western blotting were performed as described previously. […] The immune complexes were detected with the Immobilon Western Chemiluminescent HRP Substrate (Millipore). Luminescence was analyzed on a FUSION SOLO S (Vilber). […]
# HUDEP-2 cells = experiment: RNA-seq analysis of HUDEP-2 cells; type: cell-based, human
# Protocol: Total RNAs were extracted using an RNeasy Plus Mini Kit (QIAGEN). RNA-seq experiments were performed by GENEWIZ or Rhelixa. Gene Ontology (GO) analysis in Supplementary Fig. 7a, the statistical test was performed by Wallenius in goseq software. In Supplementary Tables 8(1-3), the statistical test (adjp) was determined using multiple comparisons analysis, Benjamini-Hochberg adjusted FDR test of the default of AltAnalyze (Ver. 2.0).
# Aqueous solubility = type: physicochemical; design: Solubility in PBS (pH = 7.4): unit: uM; details: for solubility at 1 h: phosphate buffer
# Protocol: The direct UV kinetic solution method was performed in duplicate. A 10 mM DMSO solution of compound was added to a microtube containing aqueous pH 7.4 or pH 6.8 phosphate buffer solution (maximum concentration: 200 μM). The solution mixture was vigorously shaken at ambient temperature for 1 h. The precipitate was removed by centrifugal separation, and the UV absorbance of the supernatant and the standard solution prepared by the test compound for calibration were measured in duplicate using a 96-well UV plate reader, SPECTRA MAX190 (Molecular Devices).
# [1] = Liver microsomal stability assay, monkey; type: in vitro ADME; details: for Metabolic stability, % remaining of RK-701: Monkey
# Protocol: [Human/Rat] Liver microsome analyses (human, rat) were performed in triplicate by the Sumika Chemical Analysis Service (SCAS) according to the standard protocols. […] [Dog/Monkey] Liver microsome analyses (dog, monkey) were performed in duplicate by RIKEN according to the same protocols as SCAS.
# PRMT6 = PRMT6 (Homo sapiens, UniProt Q96LA8)
# Chain of PRMT6 (Q96LA8 whole entry): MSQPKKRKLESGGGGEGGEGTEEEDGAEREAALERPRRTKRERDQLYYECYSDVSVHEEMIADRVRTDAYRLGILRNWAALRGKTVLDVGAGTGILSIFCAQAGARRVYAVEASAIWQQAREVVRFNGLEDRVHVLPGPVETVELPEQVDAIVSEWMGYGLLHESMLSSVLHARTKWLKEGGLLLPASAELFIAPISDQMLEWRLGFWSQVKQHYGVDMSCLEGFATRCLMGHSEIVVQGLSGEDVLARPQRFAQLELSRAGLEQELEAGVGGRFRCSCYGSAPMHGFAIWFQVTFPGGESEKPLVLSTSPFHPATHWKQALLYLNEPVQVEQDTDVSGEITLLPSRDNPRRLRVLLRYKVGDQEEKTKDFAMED
smiles,measurement,setting,value
"NC(=O)NO [Hydroxyurea, hydroxyurea]",H3K9me2 level,H3K9me2 in CD34+ cells,did not affect the H3K9me2 level
Cc1c(C(=O)NC(CCC2CC2)C(=O)Nc2ccc(C#N)cc2)[nH]c2c1C(=O)CC(C)(C)C2 (stereo not shown) [RK-701],FoldChange BCL11A,HUDEP-2 cells; HUDEP-2,1.17±0.09
same,FoldChange BGLT3,HUDEP-2 cells; HUDEP-2,3.40±0.34
same,FoldChange CHD3,HUDEP-2 cells; HUDEP-2,0.88±0.02
same,FoldChange CHD4,HUDEP-2 cells; HUDEP-2,1.00±0.02
same,FoldChange DNMT1,HUDEP-2 cells; HUDEP-2,0.97±0.02
same,FoldChange GATA1,HUDEP-2 cells; HUDEP-2,0.97±0.04
same,FoldChange GATAD2A,HUDEP-2 cells; HUDEP-2,0.96±0.03
same,FoldChange GATAD2B,HUDEP-2 cells; HUDEP-2,1.02±0.04
same,FoldChange HBA1,HUDEP-2 cells; HUDEP-2,1.15±0.13
same,FoldChange HBA2,HUDEP-2 cells; HUDEP-2,1.19±0.04
same,FoldChange HBBP1,HUDEP-2 cells; HUDEP-2,0.99±0.02
same,FoldChange HBD,HUDEP-2 cells; HUDEP-2,1.01±0.03
same,FoldChange HBE1,HUDEP-2 cells; HUDEP-2,4.70±0.71
same,FoldChange HBG1,HUDEP-2 cells; HUDEP-2,2.51±0.58
same,FoldChange HBG2,HUDEP-2 cells; HUDEP-2,3.33±0.28
same,FoldChange HBM,HUDEP-2 cells; HUDEP-2,0.96±0.04
same,FoldChange HBQ1,HUDEP-2 cells; HUDEP-2,1.09±0.05
same,FoldChange HBZ,HUDEP-2 cells; HUDEP-2,0.31±0.08
same,FoldChange HDAC1,HUDEP-2 cells; HUDEP-2,0.96±0.03
same,FoldChange HDAC2,HUDEP-2 cells; HUDEP-2,0.95±0.03
same,FoldChange IKZF1,HUDEP-2 cells; HUDEP-2,1.07±0.01
same,FoldChange KLF1,HUDEP-2 cells; HUDEP-2,1.02±0.02
same,FoldChange LDB1,HUDEP-2 cells; HUDEP-2,1.03±0.04
same,FoldChange LIN28B,HUDEP-2 cells; HUDEP-2,0.91±0.07
same,FoldChange LMO2,HUDEP-2 cells; HUDEP-2,1.28±0.04
same,FoldChange MBD2,HUDEP-2 cells; HUDEP-2,1.03±0.02
same,FoldChange MBD3,HUDEP-2 cells; HUDEP-2,0.96±0.02
same,FoldChange MIR26B,HUDEP-2 cells; HUDEP-2,0.96±0.78
same,FoldChange MTA1,HUDEP-2 cells; HUDEP-2,0.92±0.04
same,FoldChange MTA2,HUDEP-2 cells; HUDEP-2,0.95±0.02
same,FoldChange MYB,HUDEP-2 cells; HUDEP-2,0.91±0.01
same,FoldChange NR2C1,HUDEP-2 cells; HUDEP-2,1.11±0.04
same,FoldChange NR2C2,HUDEP-2 cells; HUDEP-2,0.97±0.04
same,FoldChange RBBP4,HUDEP-2 cells; HUDEP-2,0.96±0.03
same,FoldChange RBBP7,HUDEP-2 cells; HUDEP-2,0.98±0.03
same,FoldChange SOX6,HUDEP-2 cells; HUDEP-2,1.70±0.07
same,FoldChange TAL1,HUDEP-2 cells; HUDEP-2,1.12±0.04
same,FoldChange TCF3,HUDEP-2 cells; HUDEP-2,0.92±0.02
same,FoldChange ZBTB7A,HUDEP-2 cells; HUDEP-2,0.98±0.04
same,FoldChange ZFPM1,HUDEP-2 cells; HUDEP-2,0.90±0.09
same,number of genes transcriptionally upregulated,HUDEP-2 cells; HUDEP-2,204 genes
same,FoldChange HBB,"HUDEP-2 cells; HUDEP-2, 1 μM, 4 days",1.13±0.05
same,log2FoldChange CTD-2643I7.1 (BGLT3),"HUDEP-2 cells; HUDEP-2, 1 μM, 4 days",1.72
same,log2FoldChange HBE1,"HUDEP-2 cells; HUDEP-2, 1 μM, 4 days",2.16
same,log2FoldChange HBG1,"HUDEP-2 cells; HUDEP-2, 1 μM, 4 days",1.23
same,log2FoldChange HBG2,"HUDEP-2 cells; HUDEP-2, 1 μM, 4 days",1.73
same,log2FoldChange HBZ,"HUDEP-2 cells; HUDEP-2, 1 μM, 4 days",-1.67
same,Solubility in PBS (pH = 6.8),"Aqueous solubility; PBS pH = 6.8, replicate values",31.5 and 23.5 and 26.4
same,Solubility in PBS (pH = 7.4),"Aqueous solubility; PBS pH = 7.4, replicate values",10.4542 and 12.4313 and 11.5534 and 10.9261 and 15.3115 and 10.1928 and 7.42 and 8.729
same,solubility at 1 h,"Aqueous solubility; pH 6.8, PBS pH = 6.8, replicate values, read-out: Solubility in PBS (pH = 6.8)",23.9 µM
same,solubility at 1 h,"Aqueous solubility; pH 6.8, pH6.8, read-out: Solubility in PBS",26.3 ± 3.2 µM
same,solubility at 1 h,"Aqueous solubility; pH 7.4, pH7.4, read-out: Solubility in PBS",10.9 ± 2.2 µM
same,"Metabolic stability, % remaining of RK-701","[1]; Time 5, replicate values",117%
same,"Metabolic stability, % remaining of RK-701","[1]; Time 10, replicate values",94.6%
same,"Metabolic stability, % remaining of RK-701","[1]; Time 20, replicate values",60%
same,"Metabolic stability, % remaining of RK-701","[1]; Time 30, replicate values",44.3%
same,"Metabolic stability, % remaining of RK-701","[1]; Time 45, replicate values",26%
same,"Metabolic stability, % remaining of RK-701","[1]; Time 60, replicate values",19.4%
same,"remaining at 5 min, 1 µM","[1]; monkey, liver microsomes, Metabolic stability, % remaining of RK-701, Monkey, Time 5, replicate values",106%
same,"remaining at 10 min, 1 µM","[1]; monkey, liver microsomes, Metabolic stability, % remaining of RK-701, Monkey, Time 10, replicate values",85.8%
same,"remaining at 20 min, 1 µM","[1]; monkey, liver microsomes, Metabolic stability, % remaining of RK-701, Monkey, Time 20, replicate values",57.4%
same,"remaining at 30 min, 1 µM","[1]; monkey, liver microsomes, Metabolic stability, % remaining of RK-701, Monkey, Time 30, replicate values",42.4%
same,"remaining at 45 min, 1 µM","[1]; monkey, liver microsomes, Metabolic stability, % remaining of RK-701, Monkey, Time 45, replicate values",24.2%
same,"remaining at 60 min, 1 µM","[1]; monkey, liver microsomes, Metabolic stability, % remaining of RK-701, Monkey, Time 60, replicate values",16.8%
same,microsomal CLint at 1 μM,"[1]; monkey, liver microsomes, read-out: Metabolic stability in liver microsomes CLint",67 µL/min/mg
same,IC50,PRMT6,> 100 µM
